In patent US20120122981A1, “Biomarkers Related to Insulin Resistance and Methods using the Same” (priority 2009, published 2012):

Assays:
[1] = pre-diabetic patients, DPP; cited from earlier work
[2] = Predicted and actual Rd before and after treatment with the insulin sensitizer muraglitozar; format: in vivo, human; conditions: 16 subjects, pre- vs post-treatment, plasma biomarkers 1-25
Procedure: C-Mur1, baseline prior to muraglitazar treatment; D-Mur2, following treatment with muraglitazar, a peroxisome proliferator-activated receptor agonist and an insulin sensitizer drug. […] Biomarkers 1-25 listed in Table 4 were measured in plasma samples collected from 16 subjects that were taking the insulin sensitizer muraglitozar. The samples were collected pre-(C-Mur—1) and post-treatment (D-Mur—2) with muraglitozar.

Structure (SMILES) | reduction of the rate of progression to diabetes [1] [%] | change in predicted Rd with treatment, in agreement with actual Rd by HI clamp [2]
CN(C)C(=N)N=C(N)N [metformin] | 38 | 
COc1ccc(OC(=O)N(CC(=O)O)Cc2ccc(OCCc3nc(-c4ccccc4)oc3C)cc2)cc1 [muraglitozar] |  | increased
